Structures can show the parent of a compound that is named as a salt.
Test: Plasma level upon oral dosing (AUC-PO) in rat
Format: in vivo
Details: per dose; for Rat PK-AUC/dose: second table; for Rat AUC/Dose: Table 1

| SMILES | Rat PK-AUC/dose [ug-h/m/L/mg/Kg] | Rat AUC/Dose [ug-/m/L/mg/Kg] |
| --- | --- | --- |
| COc1cc(OC)cc(C(CC(=O)O)Cc2csc(CCCc3ccc4c(n3)NCCC4)n2)c1 (stereo not drawn) [Example 5, 3-(3,5-dimethoxyphenyl)-4-{2-[3-(5,6,7,8-tetrahydro-1,8-naphthyridin-2-yl)propyl]-1,3-thiazol-4-yl}butanoic acid hydrochloride] | 2.2 |  |
| Cc1nc2cc(C(CC(=O)O)Cc3csc(CCCc4ccc5c(n4)NCCC5)n3)ccc2s1 (stereo not drawn) [Example 9, 3-(2-methyl-1,3-benzothiazol-5-yl)-4-{2-[3-(5,6,7,8-tetrahydro-1,8-naphthyridin-2-yl)propyl]-1,3-thiazol-4-yl}butanoic acid hydrochloride] | 2.5 |  |
| O=C(O)CC(Cc1csc(CCCc2ccc3c(n2)NCCC3)n1)c1ccc2c(c1)OCO2 (stereo not drawn) [Example 6, 3-(1,3-benzodioxol-5-yl)-4-{2-[3-(5,6,7,8-tetrahydro-1,8-naphthyridin-2-yl)propyl]-1,3-thiazol-4-yl}butanoic acid hydrochloride] | 6.8 |  |
| O=C(O)CC(Cc1csc(CCCc2ccc3c(n2)NCCC3)n1)c1ccc2c(c1)OCO2 (stereo not drawn) [drawing 98] |  | 6.81 |
| O=C(O)C[C@H](Cc1csc(CCCCNc2cc(N3CCOCC3)ccn2)n1)c1ccc2c(c1)OCO2 |  | 0.0634 |
| COc1ccc(C(CC(=O)O)Cc2csc(CCCc3ccc4c(n3)NCCC4)n2)cn1 (stereo not drawn) [Example 13, 3-(6-Methoxypyridin-3-yl)-4-{2-[3-(5,6,7,8-tetrahydro-1,8-naphthyridin-2-yl)propyl]-1,3-thiazol-4-yl}butanoic acid hydrochloride] | 1.6 |  |
| O=C(O)C[C@H](Cc1csc(CCCc2ccc3c(n2)NCCC3)n1)c1ccc2c(c1)OCO2 [Example 7, (3S)-3-(1,3-benzodioxol-5-yl)-4-{2-[3-(5,6,7,8-tetrahydro-1,8-naphthyridin-2-yl)propyl]-1,3-thiazol-4-yl}butanoic acid hydrochloride] | 8.7 |  |
| O=C(O)CC(Cc1csc(CCCc2ccc3c(n2)NCCC3)n1)c1cnc(C2CC2)s1 (stereo not drawn) [Example 16, 3-(2-Cyclopropyl-1,3-thiazol-5-yl)-4-{2-[3-(5,6,7,8-tetrahydro-1,8-naphthyridin-2-yl)propyl]-1,3-thiazol-4-yl}butanoic acid hydrochloride] | 1.7 |  |
| COc1ccc(C(CC(=O)O)Cc2csc(CCCc3ccc4c(n3)NCCC4)n2)cc1F (stereo not drawn) [Example 2, 3-(3-fluoro-4-methoxyphenyl)-4-{2-[3-(5,6,7,8-tetrahydro-1,8-naphthyridin-2-yl)propyl]-1,3-thiazol-4-yl}butanoic acid hydrochloride] | 1.8 |  |

Reference: US7115596B2, “Thiazole compounds as integrin receptor antagonists derivatives” (Pharmacia Corporation, priority 2002, dated 2006)
